Test results reported in publication PMC7248880, “Preclinical Incorporation Dosimetry of [^18F]FACH—A Novel ^18F-Labeled MCT1/MCT4 Lactate Transporter Inhibitor for Imaging Cancer Metabolism with PET” (Molecules, 2020).

Test: Preclinical incorporation dosimetry: whole-body PET/CT in piglets, scaled to human, OLINDA 2.1, ICRP103
Assay type: in vivo, juvenile pigs
Description: Three piglets (age: ~6 weeks, weight: ~13–15 kg) were fasted on the day of imaging and received an intranuscular. injection of 1 mL azaperone and 4 mL ketamine to introduce anesthesia. […] During narcosis, the animals maintained spontaneous respiration and no mandatory ventilation was applied. The subjects were sequentially imaged after an iv injection (contralateral ear vein) of 156 ± 54 MBq [^18F]FACH (0.63 ± 0.49 µg) in a PET/CT system (Biograph16, SIEMENS, Erlangen, Germany). The piglets were positioned prone with legs alongside the body on a custom-made plastic trough including a piglet head-holder (Figure 5). The PET acquisition was divided into a sequential (4 × 9 min, 3 × 12 min) and a static part (1 × 24 min, 1 × 30 min, 1 × 36 min), each of which was preceded by a low-dose CT to acquire structural data for attenuation correction (AC) and anatomical orientation (Figure 6). Post mortem, the urine was collected by bladder punctuation, weighted, and divided into three 1 mL samples for activity measurements in a gamma-counter (Packard Cobra II 5003 Auto Gamma Counting System, GMI, Ramsey, MN, USA).
PET data reconstruction was done using low-dose CT attenuation correction (AC) and an iterative OSEM algorithm with 4 iterations and 8 subsets. As the PET/CT system is in daily clinical use, it is periodically subjected to detector normalization and activity calibration. Furthermore, all peripheral activity-measuring devices to be used for the investigation (dose calibrator, gamma counter) are cross-calibrated in terms of timing and a radioactivity adjustment.
The image data were analyzed with ROVER (ABX, Radeberg, Germany; v. 3.0.46h). The organs were identified and manually delineated using 3D volumes of interest (VOI). The CT data were used for anatomical orientation and for image registration with the PET data. Relevant source organs like brain, gall bladder, large intestine, small intestine, stomach, heart, kidneys, liver, lungs, pancreas, red marrow (backbone, pelvis, sternum), spleen, thyroid, testes, skeleton (bone), and the urinary bladder were delineated and the time–activity data transformed into percentage of injected dose (%IDorgan) with Equation (2). (2) %IDorgant=Aorgant×cscant/A0t [%] where Aorgant is the activity in the organ at the time t; cscant is a calibration factor representing the theoretical body activity (derived from a whole body mask of a volume that equals the body dimentions of the animal) decay corrected to t and divided by the imaged body activity in each image frame at the time t, and A0t is the injected activity decay corrected to t0.
The dose calculation has been described by our group in detail before. Briefly, due to differences in weight, size, and metabolic rates between the animal species and the human volunteers, it is necessary to map the preclinical extracted biodistribution data to human circumstances. Thus, the animal biokinetic data (time scale and %ID values) were adapted to the human circumstances according to [22] to fit the human weight, size, and metabolic rates (Equations (3) and (4)). (3) thuman=tanimal[mhuman/manimal]^0.25 (4) [%ID]/organhuman=[%ID]/ganimal×mTBanimal[g]/mTBhuman[g]×morganhuman[g]
The TIACs were estimated by exponential fitting and the dosimetry estimation was performed using OLINDA/EXM software (v. 2.1). Finally, organ doses (OD) were estimated and multiplied by tissue weighting factors as published in ICRP103 [20].

CCCN(CCC[18F])c1ccc(/C=C(\C#N)C(=O)O)c(OC)c1 [[^18F]FACH, (E)-2-cyano-3-{4-[(3-[^18F]fluoropropyl)(propyl)amino]-2-methoxyphenyl}acrylic acid]
Effective dose (FACHpig1): 1.25E-02 mSv/MBq | Effective dose contribution HT wT, Adrenals (FACHpig1): 1.26E-04 mSv/MBq | Effective dose contribution HT wT, Brain (FACHpig1): 5.61E-05 mSv/MBq | Effective dose contribution HT wT, Esophagus (FACHpig1): 4.16E-04 mSv/MBq | Effective dose contribution HT wT, Eyes (FACHpig1): 0.00E+00 mSv/MBq | Effective dose contribution HT wT, Gallbladder Wall (FACHpig1): 1.12E-04 mSv/MBq | Effective dose contribution HT wT, Heart Wall (FACHpig1): 9.47E-05 mSv/MBq | Effective dose contribution HT wT, Kidneys (FACHpig1): 2.47E-04 mSv/MBq | Effective dose contribution HT wT, Left colon (FACHpig1): 7.77E-04 mSv/MBq | Effective dose contribution HT wT, Liver (FACHpig1): 3.22E-04 mSv/MBq | Effective dose contribution HT wT, Lungs (FACHpig1): 9.67E-04 mSv/MBq | Effective dose contribution HT wT, Osteogenic Cells (FACHpig1): 2.00E-04 mSv/MBq | Effective dose contribution HT wT, Pancreas (FACHpig1): 5.61E-04 mSv/MBq | Effective dose contribution HT wT, Prostate (FACHpig1): 7.36E-05 mSv/MBq | Effective dose contribution HT wT, Rectum (FACHpig1): 3.44E-04 mSv/MBq | Effective dose contribution HT wT, Red Marrow (FACHpig1): 1.58E-03 mSv/MBq | Effective dose contribution HT wT, Right colon (FACHpig1): 9.34E-04 mSv/MBq | Effective dose contribution HT wT, Salivary Glands (FACHpig1): 1.03E-04 mSv/MBq | Effective dose contribution HT wT, Small Intestine (FACHpig1): 1.74E-04 mSv/MBq | Effective dose contribution HT wT, Spleen (FACHpig1): 9.48E-05 mSv/MBq | Effective dose contribution HT wT, Stomach Wall (FACHpig1): 1.71E-03 mSv/MBq | Effective dose contribution HT wT, Testes (FACHpig1): 4.40E-04 mSv/MBq | Effective dose contribution HT wT, Thymus (FACHpig1): 9.49E-05 mSv/MBq | Effective dose contribution HT wT, Thyroid (FACHpig1): 3.21E-04 mSv/MBq | Effective dose contribution HT wT, Total Body (FACHpig1): 0.00E+00 mSv/MBq | Effective dose contribution HT wT, Urinary Bladder Wall (FACHpig1): 2.74E-03 mSv/MBq | Organ equivalent dose HT, Adrenals (FACHpig1): 1.36E-02 mSv/MBq | Organ equivalent dose HT, Brain (FACHpig1): 5.61E-03 mSv/MBq | Organ equivalent dose HT, Esophagus (FACHpig1): 1.04E-02 mSv/MBq | Organ equivalent dose HT, Eyes (FACHpig1): 8.81E-03 mSv/MBq | Organ equivalent dose HT, Gallbladder Wall (FACHpig1): 1.22E-02 mSv/MBq | Organ equivalent dose HT, Heart Wall (FACHpig1): 1.03E-02 mSv/MBq | Organ equivalent dose HT, Kidneys (FACHpig1): 2.67E-02 mSv/MBq | Organ equivalent dose HT, Left colon (FACHpig1): 1.60E-02 mSv/MBq | Organ equivalent dose HT, Liver (FACHpig1): 8.05E-03 mSv/MBq | Organ equivalent dose HT, Lungs (FACHpig1): 8.05E-03 mSv/MBq | Organ equivalent dose HT, Osteogenic Cells (FACHpig1): 2.00E-02 mSv/MBq | Organ equivalent dose HT, Pancreas (FACHpig1): 6.08E-02 mSv/MBq | Organ equivalent dose HT, Prostate (FACHpig1): 1.59E-02 mSv/MBq | Organ equivalent dose HT, Rectum (FACHpig1): 1.50E-02 mSv/MBq | Organ equivalent dose HT, Red Marrow (FACHpig1): 1.32E-02 mSv/MBq | Organ equivalent dose HT, Right colon (FACHpig1): 1.93E-02 mSv/MBq | Organ equivalent dose HT, Salivary Glands (FACHpig1): 1.03E-02 mSv/MBq | Organ equivalent dose HT, Small Intestine (FACHpig1): 1.88E-02 mSv/MBq | Organ equivalent dose HT, Spleen (FACHpig1): 1.03E-02 mSv/MBq | Organ equivalent dose HT, Stomach Wall (FACHpig1): 1.43E-02 mSv/MBq | Organ equivalent dose HT, Testes (FACHpig1): 1.10E-02 mSv/MBq | Organ equivalent dose HT, Thymus (FACHpig1): 1.03E-02 mSv/MBq | Organ equivalent dose HT, Thyroid (FACHpig1): 8.02E-03 mSv/MBq | Organ equivalent dose HT, Total Body (FACHpig1): 1.15E-02 mSv/MBq | Organ equivalent dose HT, Urinary Bladder Wall (FACHpig1): 6.86E-02 mSv/MBq | Effective dose (FACHpig2): 1.19E-02 mSv/MBq | Effective dose contribution HT wT, Adrenals (FACHpig2): 1.33E-04 mSv/MBq | Effective dose contribution HT wT, Brain (FACHpig2): 4.35E-05 mSv/MBq | Effective dose contribution HT wT, Esophagus (FACHpig2): 3.43E-04 mSv/MBq | Effective dose contribution HT wT, Eyes (FACHpig2): 0.00E+00 mSv/MBq | Effective dose contribution HT wT, Gallbladder Wall (FACHpig2): 4.78E-04 mSv/MBq | Effective dose contribution HT wT, Heart Wall (FACHpig2): 8.50E-05 mSv/MBq | Effective dose contribution HT wT, Kidneys (FACHpig2): 2.20E-04 mSv/MBq | Effective dose contribution HT wT, Left colon (FACHpig2): 7.07E-04 mSv/MBq | Effective dose contribution HT wT, Liver (FACHpig2): 1.11E-03 mSv/MBq | Effective dose contribution HT wT, Lungs (FACHpig2): 9.55E-04 mSv/MBq | Effective dose contribution HT wT, Osteogenic Cells (FACHpig2): 2.34E-04 mSv/MBq | Effective dose contribution HT wT, Pancreas (FACHpig2): 2.11E-04 mSv/MBq | Effective dose contribution HT wT, Prostate (FACHpig2): 4.73E-05 mSv/MBq | Effective dose contribution HT wT, Rectum (FACHpig2): 3.17E-04 mSv/MBq | Effective dose contribution HT wT, Red Marrow (FACHpig2): 1.97E-03 mSv/MBq | Effective dose contribution HT wT, Right colon (FACHpig2): 1.58E-03 mSv/MBq | Effective dose contribution HT wT, Salivary Glands (FACHpig2): 7.07E-05 mSv/MBq | Effective dose contribution HT wT, Small Intestine (FACHpig2): 2.47E-04 mSv/MBq | Effective dose contribution HT wT, Spleen (FACHpig2): 8.20E-05 mSv/MBq | Effective dose contribution HT wT, Stomach Wall (FACHpig2): 1.22E-03 mSv/MBq | Effective dose contribution HT wT, Testes (FACHpig2): 2.83E-04 mSv/MBq | Effective dose contribution HT wT, Thymus (FACHpig2): 7.07E-05 mSv/MBq | Effective dose contribution HT wT, Thyroid (FACHpig2): 2.52E-04 mSv/MBq | Effective dose contribution HT wT, Total Body (FACHpig2): 0.00E+00 mSv/MBq | Effective dose contribution HT wT, Urinary Bladder Wall (FACHpig2): 1.25E-03 mSv/MBq | Organ equivalent dose HT, Adrenals (FACHpig2): 1.44E-02 mSv/MBq | Organ equivalent dose HT, Brain (FACHpig2): 4.35E-03 mSv/MBq | Organ equivalent dose HT, Esophagus (FACHpig2): 8.58E-03 mSv/MBq | Organ equivalent dose HT, Eyes (FACHpig2): 6.29E-03 mSv/MBq | Organ equivalent dose HT, Gallbladder Wall (FACHpig2): 5.18E-02 mSv/MBq | Organ equivalent dose HT, Heart Wall (FACHpig2): 9.21E-03 mSv/MBq | Organ equivalent dose HT, Kidneys (FACHpig2): 2.38E-02 mSv/MBq | Organ equivalent dose HT, Left colon (FACHpig2): 1.46E-02 mSv/MBq | Organ equivalent dose HT, Liver (FACHpig2): 2.77E-02 mSv/MBq | Organ equivalent dose HT, Lungs (FACHpig2): 7.96E-03 mSv/MBq | Organ equivalent dose HT, Osteogenic Cells (FACHpig2): 2.34E-02 mSv/MBq | Organ equivalent dose HT, Pancreas (FACHpig2): 2.28E-02 mSv/MBq | Organ equivalent dose HT, Prostate (FACHpig2): 1.02E-02 mSv/MBq | Organ equivalent dose HT, Rectum (FACHpig2): 1.38E-02 mSv/MBq | Organ equivalent dose HT, Red Marrow (FACHpig2): 1.64E-02 mSv/MBq | Organ equivalent dose HT, Right colon (FACHpig2): 3.25E-02 mSv/MBq | Organ equivalent dose HT, Salivary Glands (FACHpig2): 7.07E-03 mSv/MBq | Organ equivalent dose HT, Small Intestine (FACHpig2): 2.67E-02 mSv/MBq | Organ equivalent dose HT, Spleen (FACHpig2): 8.88E-03 mSv/MBq | Organ equivalent dose HT, Stomach Wall (FACHpig2): 1.01E-02 mSv/MBq | Organ equivalent dose HT, Testes (FACHpig2): 7.08E-03 mSv/MBq | Organ equivalent dose HT, Thymus (FACHpig2): 7.66E-03 mSv/MBq | Organ equivalent dose HT, Thyroid (FACHpig2): 6.30E-03 mSv/MBq | Organ equivalent dose HT, Total Body (FACHpig2): 9.14E-03 mSv/MBq | Organ equivalent dose HT, Urinary Bladder Wall (FACHpig2): 3.12E-02 mSv/MBq | Effective dose (FACHpig3): 1.29E-02 mSv/MBq | Effective dose contribution HT wT, Adrenals (FACHpig3): 1.35E-04 mSv/MBq | Effective dose contribution HT wT, Brain (FACHpig3): 4.10E-05 mSv/MBq | Effective dose contribution HT wT, Esophagus (FACHpig3): 3.24E-04 mSv/MBq | Effective dose contribution HT wT, Eyes (FACHpig3): 0.00E+00 mSv/MBq | Effective dose contribution HT wT, Gallbladder Wall (FACHpig3): 8.05E-04 mSv/MBq
